Here are results for 18 molecules from patent publication US20230340011A1 (Asteroid Therapeutics, priority 2022, published 2023).

Structures are written as SMILES. Bounds are passed on as bounds.

One assay concerns the target SREBP-2 (Homo sapiens (Human), UniProt Q12772). Put plainly: In vitro assay SREBP-2: PathHunter U2OS SREBP-2 Nuclear Translocation Cell Line, U18666A-stimulated. The format is cell-based. The conditions noted are these: PathHunter U2OS SREBP-2 nuclear translocation cells, U18666A 10 μM, overnight (16 hours).
Another assay addresses LXRβ (Homo sapiens (Human), UniProt P55055). The experiment in a line: In vitro assay LXRβ: PathHunter NHR CHO cells, LXRβ / Steroid Receptor Co-activator Peptide enzyme fragment complementation. The format is cell-based. The settings on record: PathHunter NHR CHO cells, full-length human LXRβ and SRCP, chemiluminescent signal; read-out: LXRβ PPI. In a few lines:
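Enzyme fragment complementation read-out: CHO cells stably expressing ProLink-tagged full-length human LXRβ plus nuclear enzyme acceptor–SRCP fusion, seeded and held overnight at 37° C. Medium with charcoal-dextran filtered serum; final vehicle 1%. Chemiluminescence measured after signal generation.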

As a reminder, the IC50 is the point on the concentration scale where inhibition reaches its midpoint. Lower therefore signals inhibition by little substance.

LXRβ, sequence (P55055 whole entry, the tested form may be a part): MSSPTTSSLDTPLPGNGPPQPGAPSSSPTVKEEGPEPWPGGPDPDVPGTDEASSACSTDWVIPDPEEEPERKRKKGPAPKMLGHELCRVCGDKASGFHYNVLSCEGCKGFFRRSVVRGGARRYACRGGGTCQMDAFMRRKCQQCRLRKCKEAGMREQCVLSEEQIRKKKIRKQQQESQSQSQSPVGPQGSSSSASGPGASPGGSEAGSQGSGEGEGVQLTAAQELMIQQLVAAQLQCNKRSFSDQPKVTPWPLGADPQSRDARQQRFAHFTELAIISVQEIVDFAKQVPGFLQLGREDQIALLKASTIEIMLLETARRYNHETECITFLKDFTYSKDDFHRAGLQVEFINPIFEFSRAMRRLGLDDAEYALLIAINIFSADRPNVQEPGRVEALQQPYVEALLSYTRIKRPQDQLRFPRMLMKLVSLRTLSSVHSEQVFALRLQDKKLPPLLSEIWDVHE

As for `C[C@H](CCC(=O)N1CCN(C)C(=O)C1)[C@H]1CC[C@H]2[C@@H]3CC=C4C[C@@H](O)CC[C@]4(C)[C@H]3CC[C@]12C` [Example 361, 4-[(4R)-4-[(1R,3aS,3bS,7S,9aR,9bS,11aR)-7-hydroxy-9a,11a-dimethyl-1H,2H,3H,3aH,3bH,4H,6H,7H,8H,9H,9aH,9bH,10H,11H,11aH-cyclopenta[a]phenanthren-1-yl]pentanoyl]-1-methylpiperazin-2-one], at SREBP-2, the IC50 lay in the range of 250 to 1000 nM. The EC50 at LXRβ was over 10000 nM.
The like results for `C[C@H](CCC(=O)N1CCNC(=O)C1)[C@H]1CC[C@H]2[C@@H]3CC=C4C[C@@H](O)CC[C@]4(C)[C@H]3CC[C@]12C` [Example 362, 4-[(4R)-4-[(1R,3aS,3bS,7S,9aR,9bS,11aR)-7-hydroxy-9a,11a-dimethyl-1H,2H,3H,3aH,3bH,4H,6H,7H,8H,9H,9aH,9bH,10H,11H,11aH-cyclopenta[a]phenanthren-1-yl]pentanoyl]piperazin-2-one] were, in that order, 250 to 1000 nM and over 10000 nM.
The like results for `C[C@H](CCC(=O)N1CCN(C(=O)c2nnnn2C)CC1)[C@H]1CC[C@H]2[C@@H]3CC=C4C[C@@H](O)CC[C@]4(C)[C@H]3CC[C@]12C` [Example 363, (R)-4-((3S,8S,9S,10R,13R,14S,17R)-3-hydroxy-10,13-dimethyl-2,3,4,7,8,9,10,11,12,13,14,15,16,17-tetradecahydro-1H-cyclopenta[a]phenanthren-17-yl)-1-(4-(1-methyl-1H-tetrazole-5-carbonyl)piperazin-1-yl)pentan-1-one] were, in that order, under 250 nM and over 10000 nM.
At SREBP-2, `CNC(=O)NCC1(C)CCN(C(=O)CC[C@@H](C)[C@H]2CC[C@H]3[C@@H]4CC=C5C[C@@H](O)CC[C@]5(C)[C@H]4CC[C@]23C)CC1` [Example 364, 1-((1-((R)-4-((3S,8S,9S,10R,13R,14S,17R)-3-hydroxy-10,13-dimethyl-2,3,4,7,8,9,10,11,12,13,14,15,16,17-tetradecahydro-1H-cyclopenta[a]phenanthren-17-yl)pentanoyl)-4-methylpiperidin-4-yl)methyl)-3-methylurea] had an IC50 of under 250 nM. Moreover, on LXRβ, the EC50 was over 10000 nM.
The like results for `C[C@H](CCC(=O)N1CCC(C)(CNC(=O)C(C)(C)O)CC1)[C@H]1CC[C@H]2[C@@H]3CC=C4C[C@@H](O)CC[C@]4(C)[C@H]3CC[C@]12C` [Example 365, 2-hydroxy-N-((1-((R)-4-((3S,8S,9S,10R,13R,14S,17R)-3-hydroxy-10,13-dimethyl-2,3,4,7,8,9,10,11,12,13,14,15,16,17-tetradecahydro-1H-cyclopenta[a]phenanthren-17-yl)pentanoyl)-4-methylpiperidin-4-yl)methyl)-2-methylpropanamide] were, in that order, under 250 nM and over 10000 nM.
With `C[C@H](CCC(=O)N1CCC(C)(CNS(C)(=O)=O)CC1)[C@H]1CC[C@H]2[C@@H]3CC=C4C[C@@H](O)CC[C@]4(C)[C@H]3CC[C@]12C` [Example 367, N-({1-[(4R)-4-[(1R,3aS,3bS,7S,9aR,9bS,11aR)-7-hydroxy-9a,11a-dimethyl-1H,2H,3H,3aH,3bH,4H,6H,7H,8H,9H,9aH,9bH,10H,11H,11aH-cyclopenta[a]phenanthren-1-yl]pentanoyl]-4-methylpiperidin-4-yl}methyl)methanesulfonamide], the IC50 on SREBP-2 is under 250 nM. Further, the EC50 at LXRβ is over 10000 nM.
On to `C[C@H](CCc1ccccn1)[C@H]1CC[C@H]2[C@@H]3CC=C4C[C@@](C)(O)CC[C@]4(C)[C@H]3CC[C@]12C` [Example 369, (3S,8S,9S,10R,13R,14S,17R)-3,10,13-trimethyl-17-((R)-4-(pyridin-2-yl)butan-2-yl)-2,3,4,7,8,9,10,11,12,13,14,15,16,17-tetradecahydro-1H-cyclopenta[a]phenanthren-3-ol], for which, on SREBP-2, the half-inhibitory concentration (IC50) fell in the range of 250 to 1000 nM. Further, at LXRβ, the EC50 fell in the range of 1000 to 10000 nM.
In turn, `C[C@H](CCC(=O)N1CC2(C1)CC(C)(CO)C2)[C@H]1CC[C@H]2[C@@H]3CC=C4C[C@@H](O)CC[C@]4(C)[C@H]3CC[C@]12C` [Example 372, (R)-4-((3S,8S,9S,10R,13R,14S,17R)-3-hydroxy-10,13-dimethyl-2,3,4,7,8,9,10,11,12,13,14,15,16,17-tetradecahydro-1H-cyclopenta[a]phenanthren-17-yl)-1-(6-(hydroxymethyl)-6-methyl-2-azaspiro[3.3]heptan-2-yl)pentan-1-one] returned a half-maximal inhibitory concentration (IC50) against SREBP-2 of under 250 nM. At LXRβ, the EC50 was over 10000 nM.
On the same counts, the results for `C[C@H](CCC(=O)N1CCCC(C)(CO)CC1)[C@H]1CC[C@H]2[C@@H]3CC=C4C[C@@H](O)CC[C@]4(C)[C@H]3CC[C@]12C` (stereo partly drawn) [Example 375, (4R)-4-((3S,8S,9S,10R,13R,14S,17R)-3-hydroxy-10,13-dimethyl-2,3,4,7,8,9,10,11,12,13,14,15,16,17-tetradecahydro-1H-cyclopenta[a]phenanthren-17-yl)-1-(4-(hydroxymethyl)-4-methylazepan-1-yl)pentan-1-one] are under 250 nM and over 10000 nM.
In turn, `C[C@H](CCC(=O)N1CCC(CO)CC1)[C@H]1CC[C@H]2[C@@H]3CC=C4C[C@@H](O)CC[C@]4(C)[C@H]3CC[C@]12C` [Example 376, (4R)-4-[(1R,3aS,3bS,7S,9aR,9bS,11aR)-7-hydroxy-9a,11a-dimethyl-1H,2H,3H,3aH,3bH,4H,6H,7H,8H,9H,9aH,9bH,10H,11H,11aH-cyclopenta[a]phenanthren-1-yl]-1-[4-(hydroxymethyl)piperidin-1-yl]pentan-1-one] displayed a concentration for half-maximal inhibition (IC50) against SREBP-2 of under 250 nM. Moreover, the EC50 on LXRβ lay within 250 to 1000 nM.
The like results for `CC(O)C1CCN(C(=O)CC[C@@H](C)[C@H]2CC[C@H]3[C@@H]4CC=C5C[C@@H](O)CC[C@]5(C)[C@H]4CC[C@]23C)CC1` (stereo partly drawn) [Example 377, (4R)-4-[(1R,3aS,3bS,7S,9aR,9bS,11aR)-7-hydroxy-9a,11a-dimethyl-1H,2H,3H,3aH,3bH,4H,6H,7H,8H,9H,9aH,9bH,10H,11H,11aH-cyclopenta[a]phenanthren-1-yl]-1-[4-(1-hydroxyethyl)piperidin-1-yl]pentan-1-one] were, in that order, under 250 nM and 250 to 1000 nM.
With `C[C@H](CCC(=O)N1CCC(C(C)(C)O)CC1)[C@H]1CC[C@H]2[C@@H]3CC=C4C[C@@H](O)CC[C@]4(C)[C@H]3CC[C@]12C` [Example 378, (R)-4-((3S,8S,9S,10R,13R,14S,17R)-3-hydroxy-10,13-dimethyl-2,3,4,7,8,9,10,11,12,13,14,15,16,17-tetradecahydro-1H-cyclopenta[a]phenanthren-17-yl)-1-(4-(2-hydroxypropan-2-yl)piperidin-1-yl)pentan-1-one], the IC50 against SREBP-2 was under 250 nM. Further, the EC50 on LXRβ was over 10000 nM.
On to `C[C@H](Oc1ccncc1)[C@H]1CC[C@H]2[C@@H]3CC=C4C[C@@H](O)CC[C@]4(C)[C@H]3CC[C@]12C` [Example 379, (1S,3aS,3bS,7S,9aR,9bS,11aS)-9a,11a-dimethyl-1-[(1S)-1-(pyridin-4-yloxy)ethyl]-1H,2H,3H,3aH,3bH,4H,6H,7H,8H,9H,9aH,9bH,10H,11H,11aH-cyclopenta[a]phenanthren-7-ol], for which the concentration for half-maximal inhibition (IC50) on SREBP-2 fell in the range of 250 to 1000 nM. Further, on LXRβ, the EC50 is over 10000 nM.
As for `C[C@H](Oc1cccnc1)[C@H]1CC[C@H]2[C@@H]3CC=C4C[C@@H](O)CC[C@]4(C)[C@H]3CC[C@]12C` [Example 380, (3S,8S,9S,10R,13S,14S,17S)-10,13-dimethyl-17-((S)-1-(pyridin-3-yloxy)ethyl)-2,3,4,7,8,9,10,11,12,13,14,15,16,17-tetradecahydro-1H-cyclopenta[a]phenanthren-3-ol], the half-inhibitory concentration (IC50) on SREBP-2 is under 250 nM. Also, on LXRβ, the EC50 is over 10000 nM.
Turning to `C[C@H](CCC(=O)N1CCN(C(=O)c2ncnn2C)CC1)[C@H]1CC[C@H]2[C@@H]3CC=C4C[C@@H](O)CC[C@]4(C)[C@H]3CC[C@]12C` [Example 382, (R)-4-((3S,8S,9S,10R,13R,14S,17R)-3-hydroxy-10,13-dimethyl-2,3,4,7,8,9,10,11,12,13,14,15,16,17-tetradecahydro-1H-cyclopenta[a]phenanthren-17-yl)-1-(4-(1-methyl-1H-1,2,4-triazole-5-carbonyl)piperazin-1-yl)pentan-1-one], the IC50 against SREBP-2 was under 250 nM. For the same molecule, the EC50 on LXRβ was over 10000 nM.
Turning to `CCC(=O)N1CCN(C(=O)CC[C@@H](C)[C@H]2CC[C@H]3[C@@H]4CC=C5C[C@@H](O)CC[C@]5(C)[C@H]4CC[C@]23C)CC1` [Example 385, (R)-4-((3S,8S,9S,10R,13R,14S,17R)-3-hydroxy-10,13-dimethyl-2,3,4,7,8,9,10,11,12,13,14,15,16,17-tetradecahydro-1H-cyclopenta[a]phenanthren-17-yl)-1-(4-propionylpiperazin-1-yl) pentan-1-one], the half-inhibitory concentration (IC50) against SREBP-2 was under 250 nM. Moreover, on LXRβ, the EC50 is over 10000 nM.
With `C[C@H](CCC(=O)N1CCN(c2ccncc2)CC1)[C@H]1CC[C@H]2[C@@H]3CC=C4C[C@@H](O)CC[C@]4(C)[C@H]3CC[C@]12C` [Example 396, (R)-4-((3S,8S,9S,10R,13R,14S,17R)-3-hydroxy-10,13-dimethyl-2,3,4,7,8,9,10,11,12,13,14,15,16,17-tetradecahydro-1H-cyclopenta[a]phenanthren-17-yl)-1-(4-(pyridin-4-yl)piperazin-1-yl)pentan-1-one], on SREBP-2, the 50% inhibitory concentration (IC50) was under 250 nM. The EC50 at LXRβ is over 10000 nM.
On SREBP-2, `CC(=O)N1CCOC12CN(C(=O)CC[C@@H](C)[C@H]1CC[C@H]3[C@@H]4CC=C5C[C@@H](O)CC[C@]5(C)[C@H]4CC[C@]13C)C2` [Example 410, (4R)-4-[(1R,3aS,3bS,7S,9aR,9bS,11aR)-7-hydroxy-9a,11a-dimethyl-1H,2H,3H,3aH,3bH,4H,6H,7H,8H,9H,9aH,9bH,10H,11H,11aH-cyclopenta[a]phenanthren-1-yl]-1-{δ-acetyl-5-oxa-2,8-diazaspiro[3.4]octan-2-yl}pentan-1-one] came in with a half-maximal inhibitory concentration (IC50) of 1000 to 10000 nM. For the same molecule, on LXRβ, the EC50 is over 10000 nM.
